“And” between values parts separate entries of the source, which are not always exact repeats. Equal entries are not always repeated. “Also recorded” adds a separate entry of the source.
Columns and labels:
[1] = target: T1, GTF B (Streptococcus mutans serotype c, UniProt P08987); experiment: GTF activity in solution, GTF B; format: biochemical; details: read-out: GTF B sol. % of Inhib.
T1 construct: made in house; host or cells: Streptococcus milleri KSB8 (culture supernatant)
Protocol: (§1) Glucosyltransferase activity was measured by the incorporation of [^14C-glucose] from labeled sucrose (NEN Research Products, Boston, Mass.) into glucans (Germaine et al., 1974; Venkitaraman et al., 1995). The GTF enzyme added to each sample for all assays was equivalent to the amount required to incorporate 1.0-1.5 μmol of glucose over the four hours reaction (1.0-1.5 units).
(§2) For solution assays, purified GTF B, C, D and Ss were mixed with a two-fold dilution series of the test compounds (concentration ranging from 125 to 500 μM) and incubated with [^14C-glucose]-sucrose substrate (0.2 μCi/ml) (200.0 mmol/l sucrose, 40 μmol/l dextran 9000, 0.02% sodium azide in adsorption buffer—50 mM KCl, 1.0 mM KPO4, 1.0 mM CaCl2, 0.1 mM MgCl2−pH=6.5) to reach a final concentration of 100 mmol/l sucrose (200 μl final volume). For the control, the same reaction was carried out, where ethanol:DMSO (final concentration of 7.5% and 1.25%, v/v) or ethanol (final concentration of 5%, v/v) replaced the test agent solutions. The samples were incubated 37° C. with rocking for 4 h. After incubation, ice-cold ethanol (1.0 ml) was added and the samples were stored for 18 h, 4° C. for precipitation of glucans. Radiolabeled glucan was determined by scintillation counting (Germaine et al., 1974; Venkitaraman et al., 1995).

[2] = target: T1, GTF B; experiment: GTF activity adsorbed onto saliva-coated hydroxyapatite (sHA) surface, GTF B; format: biochemical
Protocol: as §1
(§3) For surface assays, the GTFs were adsorbed to hydroxyapatite beads coated with clarified whole saliva (free of GTF activity), as detailed elsewhere (Koo et al., 2000c; Schilling and Bowen, 1988, Venkitaraman et al., 1995). The saliva-coated hydroxyapatite (sHA) beads were exposed to sufficient enzyme to saturate the surface as determined experimentally. Following the adsorption of the enzyme, the beads were washed 3 times with buffer to remove the loosely bound material and exposed to 300 μl of the two-fold dilution series of test compounds (or control) for 30 min. at the same concentrations described above. The beads were washed and exposed to 300 μl [^14C-glucose]-sucrose substrate (100.0 mmol/l sucrose, final concentration). The radiolabeled glucan formed was collected and quantified by scintillation counting (Germaine et al., 1974; Venkitaraman et al., 1995). All the solution and surface assays were done in quadruplicate in at least 3 different experiments.

[3] = target: T2, GTF C (Streptococcus mutans serotype c, UniProt P13470); experiment: GTF activity in solution, GTF C; format: biochemical; details: read-out: GTF C sol. % of Inhib.
T2 construct: The supernatant was carefully collected as the source of GTF C; made in house; host or cells: Streptococcus mutans WHB 410 (endogenous gtfC; urea/Triton extract of washed cells, hydroxyapatite chromatography)
Protocol: as §1, §2

[4] = target: T3, GTF Ss (Streptococcus sanguinis, UniProt A3CLJ9); experiment: GTF activity in solution, GTF Ss; format: biochemical, S. sanguinis; details: read-out: GTF Ss sol. % of Inhib.
Protocol: as §1, §2

[5] = target: T3, GTF Ss; experiment: GTF activity adsorbed onto sHA surface, GTF Ss; format: biochemical, S. sanguinis
Protocol: as §1, §3

[6] = test system: T4, streptococcal GTFs; experiment: GTF activity in solution, all GTFs (B, C, D, Ss) stated together; format: biochemical, Streptococcus mutans, S. sanguinis; details: 1.33 mM
T4 construct: Streptococcus milleri KSB8, which harbors the gtfB gene from S. mutans GS-5 (for GTF B production)
Protocol: The GTF enzyme added to each sample for all assays was equivalent to the amount required to incorporate 1.0-1.5 μmol of glucose over the four hours reaction (1.0-1.5 units).
The samples were incubated 37° C. with rocking for 4 h.
For this assay, a one-way layout experimental design was used in 4×2×7 factorial scheme (enzyme×state×dose). An analysis of variance was carried out and qualitative treatments were compared using Tukey test at level of 5% of significance (p<0.05). A non-linear regression was applied in order to evaluate effects of different concentrations.

[7] = test system: T4, streptococcal GTFs; experiment: GTF activity adsorbed onto sHA surface, all GTFs stated together; format: biochemical, Streptococcus mutans, S. sanguinis; details: 1.33 mM
Protocol: as §1
as §3, with “experiments. […]” for “experiments.”

[8] = test system: S. mutans UA159 and S. sobrinus 6715 biofilms; experiment: Time-kill assay in 5-day-old biofilms; format: cell-based; details: 1.33 mM (fluoride 250 ppm)
Protocol: Cells of mutans streptococci were grown in tryptone-yeast extract broth with addition of 1% (w/v) sucrose at 37° C. and 5% CO2. […] The killing assays were performed according to Phan et al. (2000). […] The homogenized suspension was serially diluted (10^1 to 10^4) and plated on tryptic soy agar or blood agar by means of a spiral plater (Autoplate model 3000, Spiral Biotech, Inc., Bethesda, Md). […] Killing curves were constructed by plotting log10 CFU/ml versus time over 4 h. All the assays were carried out in quadruplicate on at least 3 different occasions. Bactericidal effect was defined as a ≧3 log10 decreases in the CFU/ml from initial viable counts, at time zero. The potential for drug carry-over to produce falsely low viability counts was minimized by dilution of inocula and plating of small volumes of diluted samples (50 μl).

[9] = test system: dental caries; experiment: Rat caries experiment: caries scores (Larson's modification of Keyes' system); format: in vivo, Sprague Dawley rats; details: Ds and Dm levels; tt-farnesol Dm only; p<0.05
Protocol: Seven litters of ten female Sprague Dawley rats aged 14 days were purchased with their dams from Charles River (Kingston, N.Y., USA). […] The experiment proceeded for five weeks, at which time the animals were killed by CO2 asphyxiation. The lower left jaw was aseptically dissected, suspended in 5.0 mL of sterile saline solution, and sonicated (three 10-second pulses with 5-second intervals at 30 watts, Branson Sonifier 450). The suspension was plated on mitis salivarius agar plus streptomycin to estimate S. sobrinus population and on blood agar to determine total cultivable flora (TCF). […] The determination of caries score was blind by codification of the jaws and was done by 1 calibrated examiner. […] The level of significance was 5%.

[10] = test system: biofilms; experiment: Formation of biofilms (continued research); format: cell-based
[11] = read-out: GTF B surf. % of Inhib.
[12] = read-out: GTF Ss surf. % of Inhib.

T2 sequence (P13470 35-1455): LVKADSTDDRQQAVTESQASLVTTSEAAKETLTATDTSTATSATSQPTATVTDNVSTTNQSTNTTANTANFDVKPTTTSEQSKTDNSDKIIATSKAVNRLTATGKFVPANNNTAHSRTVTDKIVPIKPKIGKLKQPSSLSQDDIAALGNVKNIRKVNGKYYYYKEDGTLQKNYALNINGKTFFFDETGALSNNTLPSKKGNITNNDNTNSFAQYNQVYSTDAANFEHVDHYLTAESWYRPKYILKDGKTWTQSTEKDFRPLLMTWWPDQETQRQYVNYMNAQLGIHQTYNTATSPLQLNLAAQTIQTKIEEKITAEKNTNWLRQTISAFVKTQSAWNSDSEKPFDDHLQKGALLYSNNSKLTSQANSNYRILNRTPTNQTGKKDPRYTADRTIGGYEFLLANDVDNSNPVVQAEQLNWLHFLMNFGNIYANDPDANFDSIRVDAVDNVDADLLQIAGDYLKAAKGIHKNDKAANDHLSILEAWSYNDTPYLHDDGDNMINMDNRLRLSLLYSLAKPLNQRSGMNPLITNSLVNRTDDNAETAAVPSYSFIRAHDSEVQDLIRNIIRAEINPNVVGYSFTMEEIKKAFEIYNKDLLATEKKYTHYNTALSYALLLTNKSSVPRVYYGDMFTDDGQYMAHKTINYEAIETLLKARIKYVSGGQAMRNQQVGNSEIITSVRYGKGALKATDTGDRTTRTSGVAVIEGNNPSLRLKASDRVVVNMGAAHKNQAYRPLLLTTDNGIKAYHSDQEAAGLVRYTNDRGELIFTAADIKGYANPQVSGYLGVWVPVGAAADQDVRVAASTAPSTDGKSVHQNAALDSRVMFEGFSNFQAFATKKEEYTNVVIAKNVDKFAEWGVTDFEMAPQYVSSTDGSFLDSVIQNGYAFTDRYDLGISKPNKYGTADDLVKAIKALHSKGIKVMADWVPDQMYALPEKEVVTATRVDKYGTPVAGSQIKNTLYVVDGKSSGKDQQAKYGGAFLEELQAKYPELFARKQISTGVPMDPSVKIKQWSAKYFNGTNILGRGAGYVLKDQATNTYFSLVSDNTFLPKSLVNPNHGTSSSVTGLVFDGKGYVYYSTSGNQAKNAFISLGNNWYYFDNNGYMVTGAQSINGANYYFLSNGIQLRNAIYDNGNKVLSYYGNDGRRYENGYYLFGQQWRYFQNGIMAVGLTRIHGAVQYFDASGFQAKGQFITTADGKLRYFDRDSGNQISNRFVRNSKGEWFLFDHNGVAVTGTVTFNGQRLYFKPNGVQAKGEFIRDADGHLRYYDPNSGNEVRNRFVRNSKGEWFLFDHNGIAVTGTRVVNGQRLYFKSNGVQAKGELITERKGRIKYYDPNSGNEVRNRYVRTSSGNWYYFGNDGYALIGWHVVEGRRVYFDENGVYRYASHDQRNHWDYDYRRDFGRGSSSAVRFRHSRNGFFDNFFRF
T1 sequence (P08987 35-1476): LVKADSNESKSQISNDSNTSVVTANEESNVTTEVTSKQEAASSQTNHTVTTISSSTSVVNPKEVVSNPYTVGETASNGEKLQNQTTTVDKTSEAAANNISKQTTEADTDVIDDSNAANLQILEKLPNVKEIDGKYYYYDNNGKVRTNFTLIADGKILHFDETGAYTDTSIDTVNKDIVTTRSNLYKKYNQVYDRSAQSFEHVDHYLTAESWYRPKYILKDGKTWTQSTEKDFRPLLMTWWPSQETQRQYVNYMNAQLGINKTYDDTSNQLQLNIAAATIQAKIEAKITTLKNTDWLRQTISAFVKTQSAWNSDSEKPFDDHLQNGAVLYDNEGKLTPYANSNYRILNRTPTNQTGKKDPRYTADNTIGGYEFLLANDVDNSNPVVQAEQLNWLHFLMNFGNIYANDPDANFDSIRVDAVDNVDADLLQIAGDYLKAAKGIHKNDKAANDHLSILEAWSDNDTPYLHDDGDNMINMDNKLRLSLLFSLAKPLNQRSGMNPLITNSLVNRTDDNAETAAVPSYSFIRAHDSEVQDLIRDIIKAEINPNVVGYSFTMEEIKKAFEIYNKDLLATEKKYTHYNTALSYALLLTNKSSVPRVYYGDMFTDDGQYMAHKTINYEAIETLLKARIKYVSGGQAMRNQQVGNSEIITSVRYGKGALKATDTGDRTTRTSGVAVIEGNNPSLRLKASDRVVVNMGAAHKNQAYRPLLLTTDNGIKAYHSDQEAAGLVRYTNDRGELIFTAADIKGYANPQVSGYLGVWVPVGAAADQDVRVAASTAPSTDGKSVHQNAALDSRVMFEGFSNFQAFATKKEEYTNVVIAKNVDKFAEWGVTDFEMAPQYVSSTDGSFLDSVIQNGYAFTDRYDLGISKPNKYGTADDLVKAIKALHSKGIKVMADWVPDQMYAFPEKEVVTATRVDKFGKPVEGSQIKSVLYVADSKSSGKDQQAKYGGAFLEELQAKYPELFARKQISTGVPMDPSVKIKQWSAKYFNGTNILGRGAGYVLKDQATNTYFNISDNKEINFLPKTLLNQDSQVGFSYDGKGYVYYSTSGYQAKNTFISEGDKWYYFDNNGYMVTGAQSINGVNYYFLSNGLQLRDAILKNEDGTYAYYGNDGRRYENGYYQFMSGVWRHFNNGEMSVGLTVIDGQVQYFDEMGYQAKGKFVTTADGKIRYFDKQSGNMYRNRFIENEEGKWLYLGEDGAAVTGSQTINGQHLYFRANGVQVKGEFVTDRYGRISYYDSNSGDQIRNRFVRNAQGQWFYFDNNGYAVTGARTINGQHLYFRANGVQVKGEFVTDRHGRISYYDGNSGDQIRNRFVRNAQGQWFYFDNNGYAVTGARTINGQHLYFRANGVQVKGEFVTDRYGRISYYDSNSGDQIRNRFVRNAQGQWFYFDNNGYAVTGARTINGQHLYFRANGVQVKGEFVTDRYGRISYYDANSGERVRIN

O=c1cc(-c2ccc(O)cc2)oc2cc(O)cc(O)c12 [Apigenin]
inhibition at 125 µM [1]: 78.3% | inhibition at 250 µM [1]: 92.8% | inhibition at 500 µM [1]: 94.3% | IC50 ([2]; IC50 for surface-adsorbed GTF B, surface-adsorbed): 478 µM and 474 µM | inhibition at 125 µM [2, 11]: 31.8% | inhibition at 250 µM [2, 11]: 40% | inhibition at 500 µM [2, 11]: 55.5% | inhibition at 125 µM [3]: 77.5% | inhibition at 250 µM [3]: 87.5% | inhibition at 500 µM [3]: 90.5% | inhibition at 125 µM [4]: 83.2% | inhibition at 250 µM [4]: 91.2% | inhibition at 500 µM [4]: 92.7% | inhibition at 125 µM [5, 12]: 13.8% | inhibition at 250 µM [5, 12]: 20.2% | inhibition at 500 µM [5, 12]: 30% | IC50 ([5]; read-out: IC50 for surface-adsorbed GTF SS, surface-adsorbed): > 1000 µM | inhibition of GTFs in solution [6]: 90-95% | inhibition of GTFs on a surface [7]: 60-70% | antibacterial activity against mutans streptococci biofilms (in words) [8]: devoid of antibacterial effects; also recorded: negligible antibacterial activity | smooth-surface caries severity scores versus control (in words) [9]: significantly lower | formation of biofilms (in words) [10]: inhibits formation of biofilms

Reference: patent US20040057908A1, “Oral compositions and use thereof” (priority 2003, published 2004)
